Results as given in US6960559B1, “Neurite growth regulatory factors” (University of Zurich, priority 1988, dated 2005).
Where “and” joins values, the source holds several entries; their conditions need not be identical. Equal values may be shown once. Read-outs that look alike come from different tables or passages of the source. Where a SMILES comes first, the peptide text is derived from it. The star is where a group is joined. Cbz = O=C(OCc1ccccc1)*

Assays:
[1] = test system: C6 plasma membrane associated metalloendoprotease; assay: Enzyme assay: cbz-FAF[125I]Y-NH2 degradation by C6 plasma membranes with protease blockers; format: biochemical, rat
Experimental: For most experiments, 70-80% confluent cell layers (1 cm^2 wells, 100 μl MEMα) or 2-5 μg C6 plasma membrane (100 μl MEMα) were used. […] If indicated, cell layers or plasma membrane suspensions were preincubated for 30 min with protease blockers or peptides. NEM or iodacetamide incubations of plasma membranes were performed at pH 8.5. The incubation was stopped by loading a 10 μl aliquot of the incubation medium on a thin layer chromatography plate (10 cm height, Kieselgel 60 F254, MERCK, Germany) and air dried. […] Plates were then air dried and exposed on Kodak X-OMAT films (NY, USA) with an intensifying screen. To identify the degradation products on thin-layer chromatography, we run reference peptides under the same conditions.
For the quantification of the activity, the reaction was stopped by addition of an equal volume of chloroform. […] Activity is expressed as % radioactivity contained in the aqueous phase. 100% is the sum of the radioactivity of both phases.

C6 glioblastoma cells = assay: cells; format: cell-based, rat; conditions: for IC50: 2 h
Experimental: Rat C6 glioblastoma cells (Benda et al., 1968, Science 161:370-371) were cultured in Dulbecco's modified Eagle's medium (DMEM) supplemented with 10% fetal calf serum (FCS), usually to maximally 70-80% confluency (Paganetti et al., 1988, J. Cell Biol. 107:2281-2291). All cell culture media were routinely supplemented with penicillin and streptomycin. Cells were harvested by a short trypsin treatment (0.1% in Ca^2+/Mg^2+-free [CMF] PBS/EDTA solution for 90 seconds) followed by addition of DMEM/10% FCS and centrifugation (600×g, 6 min). The cell pellet was rinsed with 5 ml DMEM/10% FCS and centrifuged. For cell spreading assays, cells were resuspended at 10^6/ml in defined serum-free medium (MEMα) supplemented with 0.2 μg/ml insulin, 0.5 μg/ml transferrin and 0.12 μg/ml bovine serum albumin (BSA). Protease blockers or peptides were added directly to the cell suspension from 10×solutions 10 min before plating.
Spinal cord myelin from young adult Lewis rats was purified on a discontinuous sucrose gradient (Colman et al., 1982, J. Cell Biol. 95:598-608; Schwab and Caroni, 1988, J. Neurosci. 8:2381-2393) and stored in 100 mM sucrose, 25 mM TRIS/HCl pH 7.4 at −80° C. up to 6 months. The myelin suspension ([…]) was incubated for 30 min on poly-D-lysine-coated wells (PLYS-wells). Unbound myelin membranes were removed by rinsing twice with CMF-Hank's and once with MEMα. Myelin-coated wells were used immediately for the spreading assay by adding 9'000 C6 cells per cm^2. Experiments were scored as described (Paganetti et al., 1988, J. Cell Biol. 107:2281-2291).

C6 cells = assay: C6 cell spreading on CNS myelin or PLYS with protease inhibitors; format: cell-based, rat; conditions: for Inhibition on CNS (%): C6 cells, spreading on PLYS minus spreading on CNS myelin; for Effect on C6 cell spreading on CNS myelin, in words: Section 9
Experimental: Rat C6, mouse NIH 3T3 and B16 cells were cultured in Dulbecco's modified Eagle's medium (DMEM) supplemented with 10% fetal calf serum (FCS), usually to maximally 70-80% confluency. Cells were harvested with a short trypsin treatment (0.1% in Ca^2+/Mg^2+-free Hank's medium for 90 seconds) stopped by addition of FCS in excess, collected by centrifugation. Cells were resuspended in either DMEM/FCS or defined serum-free medium (MEM) and used for experiments. Dissociated rat CNS glial cells were prepared starting from optic nerves of 6-7 days old Lewis rats as described in Section 6.1.1, supra and plated into poly-D-lysine (PLYS) coated wells (100 mm^2, 100 μl medium) at a density of 20,000 cells per well. The culture medium was an enriched L15 medium with 5% rat serum, penicillin and streptomycin. C6, 3T3 and B16 cells were added to 2 day old cultures at a concentration of 30,000 cells per well, incubated for two hours and fixed with warm 4% formalin in phosphate buffer. Inhibitory oligodendrocytes were identified by double labelling using the specific antibodies O1 and O4 (see Section 6.1.3, supra).
Myelin from rat spinal cord (CNS) or sciatic nerve (PNS) purified on a discontinuous sucrose gradient as described in Section 6.1.5., was dried overnight onto PLYS coated wells (20 μg protein/well of 100 mm^2 surface). Unbound membranes were removed by three washes with Ca^2+/Mg^2+-free Hank's solution. Myelin coated wells were immediately used in substrate testing assays by the addition of 9,000 cells (C6, 3T3, or B16) per cm^2. Alternatively, we used extracted CNS myelin protein, or SDS-PAGE purified 35 and 250 kD inhibitory proteins reconstituted in liposomes (see Section 7.1.5, supra). Experiments were scored at different time points using a phase contrast microscope equipped with a photocamera. Quantifications were done using a surface integration program; three arbitrary fields were photographed for each well at a magnitude of 80×, at least 25 cells per picture were measured. Each point represents the mean of at least 3 wells±SEM. Results are expressed as μ^2 of projected cell surface, or as degree, which was calculated by subtracting from the projected surface value of a spreading cell, the surface value of a completely spheric cell.

cbz-FAF[^125I]Y-NH2 = assay: Degradation of cbz-FAF[125I]Y-NH2 by defined proteases and C6 cell fractions; format: biochemical
Experimental: Preparation of plasma membrane from C6 cells was performed according to (Raper and Kapfhammer, 1990, Neuron 2:21-29) with some modifications. Briefly, C6 cells were cultured in 30 culture dishes (13.5 cm diameter). At confluency, the culture medium was removed and the cell layers were frozen to −20° C. All subsequent manipulations were performed at 4° C.: cell debris were collected using a rubber policeman in 100 ml CMF-Hank's and further homogenized by 10 strokes in a Dounce homogenizer with teflon plunger. A small aliquot of this suspension was stored at −20° C. and used later (homogenate-fraction). The nuclear pellet was obtained by low speed centrifugation (10 min, 1000×g) in a Sorvall S22 rotor and stored at […] A crude vesicular fraction was obtained by centrifugating the nuclear supernatant in a Sorvall S22 rotor (20,000×g, 30 min), and was resuspended in 10 ml CMF-Hank's. After adding 20 ml 2.25 M sucrose in CMF-Hank's, this suspension was loaded on 4×8 ml 2.25 M sucrose in CMF-Hank's and centrifuged at 80,000×g for 1 h in a Beckman SW28 motor. Plasma membranes were harvested at the top and the mitochondrial fraction at the interphase of this 2 step gradient. Both fractions were diluted 10× with CMF-Hank's and pelleted (Beckman TI80, 22,000×g, 30 min). The two pellets were resuspended in 2 ml MEMα (1.3 mg protein/ml) supplemented with 0.5 mM DTT and stored at −20° C.
For most experiments, 70-80% confluent cell layers (1 cm^2 wells, 100 μl MEMα) or 2-5 μg C6 plasma membrane (100 μl MEMα) were used. Reactions were started by the addition of 10 μl cbz-FAF[^125I]Y-NH2 (SEQ ID NO:2) (2 μM in MEMα, 10,000-30,000 cpm). If indicated, cell layers or plasma membrane suspensions were preincubated for 30 min with protease blockers or peptides. NEM or iodacetamide incubations of plasma membranes were performed at pH 8.5. The incubation was stopped by loading a 10 μl aliquot of the incubation medium on a thin layer chromatography plate (10 cm height, Kieselgel 60 F254, MERCK, Germany) and air dried. Thin layer chromatography was routinely run with CHCl3:CH3OH:CH3COOH 32% (5:3:1). Plates were then air dried and exposed on Kodak X-OMAT films (NY, USA) with an intensifying screen. To identify the degradation products on thin-layer chromatography, we run reference peptides under the same conditions.
For the quantification of the activity, the reaction was stopped by addition of an equal volume of chloroform. This simple procedure allowed us to separate an organic phase containing the unreacted substrate cbz-FAF[^125I]Y-NH2 and an aqueous phase containing the charged degradation products (see also FIG. 30). Activity is expressed as % radioactivity contained in the aqueous phase. 100% is the sum of the radioactivity of both phases.

[2] = C6 cell spreading on CNS myelin, read-out: IC50 on CNS myelin

Compound: C[C@H](CS)C(=O)N1CCC[C@H]1C(=O)O [Captopril]
- Effect on cbz-FAF[^125I]Y-NH2 degradation by C6 plasma membranes, in words [1]: had no effect

Compound: C[C@H](NC(=O)[C@@H](N)Cc1ccccc1)C(=O)N[C@@H](Cc1ccccc1)C(=O)N[C@@H](Cc1ccc(O)cc1)C(N)=O [FAFY-NH2] (H-FAFY-NH2; N-terminus assumed)
- IC50 (C6 glioblastoma cells; [2]): 300 µM

Compound: CCN1C(=O)C=CC1=O [N-ethylmaleimide]
- Effect on cbz-FAF[^125I]Y-NH2 degradation by C6 plasma membranes, in words [1]: had no effect

Compound: O=S(=O)(F)Cc1ccccc1 [PMSF, Phenyl methyl sulfonyl fluoride]
- Inhibition on CNS (%) (C6 cells): 6%
- Effect on cbz-FAF[^125I]Y-NH2 degradation by C6 plasma membranes, in words [1]: had no effect

Compound: CC(C)C[C@H](NC(=O)[C@@H](O)[C@H](N)Cc1ccccc1)C(=O)O [bestatine]
- Inhibition on CNS (%) (C6 cells): 0%
- Effect on C6 cell spreading on CNS myelin, in words (C6 cells): did not impair C6 cell spreading
- Effect on cbz-FAF[^125I]Y-NH2 degradation by C6 plasma membranes, in words [1]: did not affect overall activity
- Effect on formation of Y-NH2 from cbz-FAF[^125I]Y-NH2, in words [1]: specifically inhibited the formation of Y-NH2

Compound: C[C@H](NC(=O)OCc1ccccc1)C(=O)N[C@@H](Cc1ccccc1)C(N)=O [cbz-AF-NH2, carbobenzoxy-alanine-phenylalanine-amide]
- IC50 (C6 glioblastoma cells; [2]): 600 µM

Compound: C[C@H](NC(=O)OCc1ccccc1)C(=O)N[C@@H](Cc1ccccc1)C(=O)N[C@@H](Cc1ccc(O)cc1)C(N)=O [cbz-AFY-NH2]
- Effect on C6 cell spreading on CNS myelin, in words (C6 glioblastoma cells; Section 11): strong inhibition of cell spreading

Compound: C[C@H](NC(=O)[C@H](Cc1ccccc1)NC(=O)OCc1ccccc1)C(N)=O [cbz-FA-NH2]
- IC50 (C6 glioblastoma cells; [2]): 600 µM

Compound: C[C@H](NC(=O)[C@H](Cc1ccccc1)NC(=O)OCc1ccccc1)C(=O)N[C@@H](Cc1ccccc1)C(=O)N[C@@H](Cc1ccc(O)cc1)C(N)=O [cbz-FAFY-NH2, carbobenzoxy-Phe-Ala-Phe-Tyr-amide] (Cbz-FAFY-NH2)
- IC50 (C6 glioblastoma cells): 3 µM
- Effect on C6 cell spreading on CNS myelin, in words (C6 glioblastoma cells; Section 11): clearly impaired C6 cell spreading on CNS myelin
- Effect on C6 cell spreading on PLYS-coated wells, in words (C6 glioblastoma cells; Section 11): had no effect on PLYS-coated wells

Compound: COC(=O)[C@H](Cc1ccccc1)NC(=O)[C@H](Cc1ccccc1)NC(=O)CNC(=O)OCc1ccccc1 [cbz-GFF-OCH3] (Cbz-Gly-Phe-Phe-OMe)
- IC50 (C6 glioblastoma cells): 5 µM
- Effect on C6 cell spreading on CNS myelin, in words (C6 glioblastoma cells; Section 11): strong inhibition of cell spreading

Compound: O=C(CNC(=O)OCc1ccccc1)N[C@@H](Cc1ccccc1)C(=O)N[C@@H](Cc1ccccc1)C(=O)O [cbz-GFF] (Cbz-Gly-Phe-Phe-OH; C-terminus assumed)
- IC50 (C6 glioblastoma cells): 300 µM

Compound: CC(C)C[C@H](NC(=O)CNC(=O)OCc1ccccc1)C(=O)N[C@@H](Cc1ccccc1)C(N)=O [cbz-GLF-NH2] (Cbz-Gly-Leu-Phe-NH2)
- IC50 (C6 glioblastoma cells): 5 µM

Compound: NC(=O)CI [iodacetamide]
- Effect on cbz-FAF[^125I]Y-NH2 degradation by C6 plasma membranes, in words [1]: had no effect

Compound: CC(C)C[C@H](NP(=O)(O)O[C@@H]1O[C@@H](C)[C@H](O)[C@@H](O)[C@H]1O)C(=O)N[C@@H](Cc1c[nH]c2ccccc12)C(=O)O [phosphoramidon]
- Inhibition on CNS (%) (C6 cells): 9%
- Effect on C6 cell spreading on CNS myelin, in words (C6 cells): did not impair C6 cell spreading
- Effect on cbz-FAF[^125I]Y-NH2 degradation by C6 plasma membranes, in words [1]: had no effect

Compound: Carboxymethyl-phe-leu [cm-phe-leu]
- Inhibition on CNS (%) (C6 cells): 3%
- Effect on C6 cell spreading on CNS myelin, in words (C6 cells): did not inhibit C6 cell spreading
- Effect on cbz-FAF[^125I]Y-NH2 degradation by C6 plasma membranes, in words [1]: had no effect

Compound: cathepsin D: acidic protease
- Amount necessary to degrade 50% of substrate in 30 min (cbz-FAF[^125I]Y-NH2; 37° C., pH 7.4): >100 µg
- Amount giving half maximal activity on cbz-FAFY-NH2 (cbz-FAF[^125I]Y-NH2; pH 4.0): 5 ng
- Amount necessary to degrade 50% of substrate in 30 min (cbz-FAF[^125I]Y-NH2; pH 4.0): 0.005 µg

Compound: collagenase
- Amount necessary to degrade 50% of substrate in 30 min (cbz-FAF[^125I]Y-NH2; 37° C., pH 7.4): 3 µg and 3.0 µg

Compound: trypsin
- Amount necessary to degrade 50% of substrate in 30 min (cbz-FAF[^125I]Y-NH2; 37° C., pH 7.4): 0.3 µg
